Experimental data reported in the NIST ThermoML archive (doi:10.1021/je500696p).

What was measured:
[1] = xn = mol fraction of the nth substance listed; details: 100 kPa, Liquid, Vibrating tube method
[2] = excess molar enthalpy (molar enthalpy of mixing); xn = mol fraction of the nth substance listed; details: 100 kPa, Liquid, Calvet calorimetry

CCCC[N+](C)(C)C.O=S(=O)([N-]S(=O)(=O)C(F)(F)F)C(F)(F)F [butyltrimethylammonium bis(trifluoromethylsulfonyl)imide] + CCCO
Details	excess molar enthalpy [kcal/mol]	mass density [kg/m3]
[1], 293.15 K, x2 = 0	–	1397.1
[1], 293.15 K, x2 = 0.1273	–	1375
[1], 293.15 K, x2 = 0.2596	–	1346.9
[1], 293.15 K, x2 = 0.3787	–	1315
[1], 293.15 K, x2 = 0.4996	–	1273.9
[1], 293.15 K, x2 = 0.6368	–	1210.1
[1], 293.15 K, x2 = 0.7624	–	1126
[1], 293.15 K, x2 = 0.8787	–	1008.7
[1], 293.15 K, x2 = 0.9498	–	903.9
[1], 293.15 K, x2 = 0.9799	–	847.3
[1], 295.15 K, x2 = 0	–	1395.3
[1], 295.15 K, x2 = 0.1273	–	1373.2
[1], 295.15 K, x2 = 0.2596	–	1345.1
[1], 295.15 K, x2 = 0.3787	–	1313.2
[1], 295.15 K, x2 = 0.4996	–	1272.1
[1], 295.15 K, x2 = 0.6368	–	1208.3
[1], 295.15 K, x2 = 0.7624	–	1124.2
[1], 295.15 K, x2 = 0.8787	–	1006.9
[1], 295.15 K, x2 = 0.9498	–	902.2
[1], 295.15 K, x2 = 0.9799	–	845.7
[1], 298.15 K, x2 = 0	–	1392.7
[1], 298.15 K, x2 = 0.1273	–	1370.6
[1], 298.15 K, x2 = 0.2596	–	1342.4
[1], 298.15 K, x2 = 0.3787	–	1310.6
[1], 298.15 K, x2 = 0.4996	–	1269.4
[1], 298.15 K, x2 = 0.6368	–	1205.6
[1], 298.15 K, x2 = 0.7624	–	1121.4
[1], 298.15 K, x2 = 0.8787	–	1004.3
[1], 298.15 K, x2 = 0.9498	–	899.7
[1], 298.15 K, x2 = 0.9799	–	843.2
[1], 303.15 K, x2 = 0	–	1388.3
[1], 303.15 K, x2 = 0.1273	–	1366.2
[1], 303.15 K, x2 = 0.2596	–	1338
[1], 303.15 K, x2 = 0.3787	–	1306.1
[1], 303.15 K, x2 = 0.4996	–	1264.9
[1], 303.15 K, x2 = 0.6368	–	1201.1
[1], 303.15 K, x2 = 0.7624	–	1117
[1], 303.15 K, x2 = 0.8787	–	999.9
[1], 303.15 K, x2 = 0.9498	–	895.5
[1], 303.15 K, x2 = 0.9799	–	839.1
[1], 308.15 K, x2 = 0	–	1384
[1], 308.15 K, x2 = 0.1273	–	1361.8
[1], 308.15 K, x2 = 0.2596	–	1333.5
[1], 308.15 K, x2 = 0.3787	–	1301.6
[1], 308.15 K, x2 = 0.4996	–	1260.4
[1], 308.15 K, x2 = 0.6368	–	1196.5
[1], 308.15 K, x2 = 0.7624	–	1112.5
[1], 308.15 K, x2 = 0.8787	–	995.5
[1], 308.15 K, x2 = 0.9498	–	891.2
[1], 308.15 K, x2 = 0.9799	–	835
[1], 313.15 K, x2 = 0	–	1379.6
[1], 313.15 K, x2 = 0.1273	–	1357.4
[1], 313.15 K, x2 = 0.2596	–	1329.1
[1], 313.15 K, x2 = 0.3787	–	1297.2
[1], 313.15 K, x2 = 0.4996	–	1255.9
[1], 313.15 K, x2 = 0.6368	–	1192
[1], 313.15 K, x2 = 0.7624	–	1107.9
[1], 313.15 K, x2 = 0.8787	–	991.1
[1], 313.15 K, x2 = 0.9498	–	887
[1], 313.15 K, x2 = 0.9799	–	830.8
[1], 318.15 K, x2 = 0	–	1375.2
[1], 318.15 K, x2 = 0.1273	–	1353
[1], 318.15 K, x2 = 0.2596	–	1324.7
[1], 318.15 K, x2 = 0.3787	–	1292.7
[1], 318.15 K, x2 = 0.4996	–	1251.4
[1], 318.15 K, x2 = 0.6368	–	1187.4
[1], 318.15 K, x2 = 0.7624	–	1103.4
[1], 318.15 K, x2 = 0.8787	–	986.7
[1], 318.15 K, x2 = 0.9498	–	882.6
[1], 318.15 K, x2 = 0.9799	–	826.6
[1], 323.15 K, x2 = 0	–	1370.9
[1], 323.15 K, x2 = 0.1273	–	1348.6
[1], 323.15 K, x2 = 0.2596	–	1320.3
[1], 323.15 K, x2 = 0.3787	–	1288.2
[1], 323.15 K, x2 = 0.4996	–	1246.9
[1], 323.15 K, x2 = 0.6368	–	1182.9
[1], 323.15 K, x2 = 0.7624	–	1098.8
[1], 323.15 K, x2 = 0.8787	–	982.2
[1], 323.15 K, x2 = 0.9498	–	878.3
[1], 323.15 K, x2 = 0.9799	–	822.4
[1], 328.15 K, x2 = 0	–	1366.6
[1], 328.15 K, x2 = 0.1273	–	1344.3
[1], 328.15 K, x2 = 0.2596	–	1315.9
[1], 328.15 K, x2 = 0.3787	–	1283.8
[1], 328.15 K, x2 = 0.4996	–	1242.4
[1], 328.15 K, x2 = 0.6368	–	1178.3
[1], 328.15 K, x2 = 0.7624	–	1094.3
[1], 328.15 K, x2 = 0.8787	–	977.7
[1], 328.15 K, x2 = 0.9498	–	873.9
[1], 328.15 K, x2 = 0.9799	–	818
[1], 333.15 K, x2 = 0	–	1362.3
[1], 333.15 K, x2 = 0.1273	–	1339.9
[1], 333.15 K, x2 = 0.2596	–	1311.5
[1], 333.15 K, x2 = 0.3787	–	1279.4
[1], 333.15 K, x2 = 0.4996	–	1237.9
[1], 333.15 K, x2 = 0.6368	–	1173.8
[1], 333.15 K, x2 = 0.7624	–	1089.7
[1], 333.15 K, x2 = 0.8787	–	973.1
[1], 333.15 K, x2 = 0.9498	–	869.5
[1], 333.15 K, x2 = 0.9799	–	813.7
[2], 308.15 K, x2 = 0.1224	0.223	–
[2], 308.15 K, x2 = 0.2622	0.436	–
[2], 308.15 K, x2 = 0.2665	0.442	–
[2], 308.15 K, x2 = 0.374	0.556	–
[2], 308.15 K, x2 = 0.4927	0.622	–
[2], 308.15 K, x2 = 0.5007	0.623	–
[2], 308.15 K, x2 = 0.5108	0.627	–
[2], 308.15 K, x2 = 0.5118	0.63	–
[2], 308.15 K, x2 = 0.6191	0.606	–
[2], 308.15 K, x2 = 0.744	0.532	–
[2], 308.15 K, x2 = 0.7466	0.533	–
[2], 308.15 K, x2 = 0.7505	0.521	–
[2], 308.15 K, x2 = 0.8709	0.354	–
[2], 313.15 K, x2 = 0.113	0.187	–
[2], 313.15 K, x2 = 0.2393	0.374	–
[2], 313.15 K, x2 = 0.2549	0.385	–
[2], 313.15 K, x2 = 0.3933	0.518	–
[2], 313.15 K, x2 = 0.4936	0.569	–
[2], 313.15 K, x2 = 0.4959	0.567	–
[2], 313.15 K, x2 = 0.499	0.568	–
[2], 313.15 K, x2 = 0.6245	0.564	–
[2], 313.15 K, x2 = 0.7406	0.507	–
[2], 313.15 K, x2 = 0.8666	0.369	–
[2], 323.15 K, x2 = 0.1187	0.185	–
[2], 323.15 K, x2 = 0.2569	0.406	–
[2], 323.15 K, x2 = 0.2694	0.422	–
[2], 323.15 K, x2 = 0.3969	0.538	–
[2], 323.15 K, x2 = 0.527	0.6	–
[2], 323.15 K, x2 = 0.5431	0.611	–
[2], 323.15 K, x2 = 0.6214	0.598	–
[2], 323.15 K, x2 = 0.7499	0.548	–
[2], 323.15 K, x2 = 0.8707	0.413	–
